Consider two compounds from PMC12564596 (2025).

Assay [1] deals with HS-Apt-PEN (DNA, aptamer) CTGAATTGGATCTCTCTTCTTGAGCGATCTCCACA
Nature of the assay: QCM-D on gold electrode, Langmuir fit of 3rd harmonic frequency. To be noted: 137 mM NaCl, 2.7 mM KCl; PBS pH 7.4; flow; immobilised aptamer; no clear plateau to 500 nM; some non-specific binding likely.

Assay [2] has the same test system. Put plainly: LSPR on AuNPs, Langmuir fit. As to conditions: 137 mM NaCl, 2.7 mM KCl; PBS pH 7.4; flow; MCH and salmon sperm DNA passivation; immobilised aptamer.
In assay [3] the test system is HS-Apt-OTC (DNA, aptamer) GGGGGCACACATGTAGGTGCTGTCCAGGTGTGGTTGTGGT
Nature of the assay: LSPR and QCM-D selectivity test. As to conditions: 137 mM NaCl, 2.7 mM KCl; PBS pH 7.4; 100 nM compound.

As for `CC1(C)S[C@@H]2[C@H](NC(=O)Cc3ccccc3)C(=O)N2[C@H]1C(=O)O`, the KD (commonly the free concentration of one partner at which half of the binding sites on the other are occupied at equilibrium, for simple one-to-one binding) was determined as 50 nM in assay [1] and 20 nM in assay [2].

For `CN(C)[C@@H]1C(=O)C(C(N)=O)=C(O)[C@@]2(O)C(=O)C3=C(O)c4c(O)cccc4[C@@](C)(O)[C@H]3[C@H](O)[C@@H]12`, the binding result in assay [3] is on record as “yes”.
